Columns and labels:
[1] = target: T1, Alpha-2A adrenergic receptor (Homo sapiens, UniProt P08913); format: cell membranes, Sf9, Membrane; conditions: sf9; further: in other assays of this panel Not Active means under 50% inhibition at 10 µM
T1 sequence (P08913 whole entry): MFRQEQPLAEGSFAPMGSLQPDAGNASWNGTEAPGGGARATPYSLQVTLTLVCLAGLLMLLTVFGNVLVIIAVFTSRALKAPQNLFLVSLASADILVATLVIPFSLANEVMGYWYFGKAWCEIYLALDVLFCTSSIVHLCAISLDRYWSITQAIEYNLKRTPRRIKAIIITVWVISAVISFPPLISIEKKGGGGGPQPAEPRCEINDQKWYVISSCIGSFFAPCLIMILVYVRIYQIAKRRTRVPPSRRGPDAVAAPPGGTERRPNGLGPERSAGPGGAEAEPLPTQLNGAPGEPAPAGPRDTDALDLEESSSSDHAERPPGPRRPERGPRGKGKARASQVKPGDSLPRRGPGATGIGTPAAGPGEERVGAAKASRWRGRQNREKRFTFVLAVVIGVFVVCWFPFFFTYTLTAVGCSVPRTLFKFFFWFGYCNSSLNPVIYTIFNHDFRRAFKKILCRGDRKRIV

[2] = DRUGMATRIX: Calcium Channel Type L, Phenylalkylamine radioligand binding (ligand: [3H] (-)-Desmethoxyverapamil (D-888)); format: cell membranes, Rattus norvegicus, Wistar, Brain, Membrane; conditions: Not Active = under 50% inhibition at 10 µM
[3] = target: Receptor tyrosine-protein kinase erbB-2 (Homo sapiens, UniProt P04626); experiment: biochemical; format: cell-based, Insect cells; conditions: insect cells;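 further: inhibition of HER2 kinase enzyme activity, measured with Poly(Glu:Tyr) as the phosphorylation substrate; in other assays of this panel Not Active means under 50% inhibition at 10 µM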
Chain of Receptor tyrosine-protein kinase erbB-2 (P04626 whole entry): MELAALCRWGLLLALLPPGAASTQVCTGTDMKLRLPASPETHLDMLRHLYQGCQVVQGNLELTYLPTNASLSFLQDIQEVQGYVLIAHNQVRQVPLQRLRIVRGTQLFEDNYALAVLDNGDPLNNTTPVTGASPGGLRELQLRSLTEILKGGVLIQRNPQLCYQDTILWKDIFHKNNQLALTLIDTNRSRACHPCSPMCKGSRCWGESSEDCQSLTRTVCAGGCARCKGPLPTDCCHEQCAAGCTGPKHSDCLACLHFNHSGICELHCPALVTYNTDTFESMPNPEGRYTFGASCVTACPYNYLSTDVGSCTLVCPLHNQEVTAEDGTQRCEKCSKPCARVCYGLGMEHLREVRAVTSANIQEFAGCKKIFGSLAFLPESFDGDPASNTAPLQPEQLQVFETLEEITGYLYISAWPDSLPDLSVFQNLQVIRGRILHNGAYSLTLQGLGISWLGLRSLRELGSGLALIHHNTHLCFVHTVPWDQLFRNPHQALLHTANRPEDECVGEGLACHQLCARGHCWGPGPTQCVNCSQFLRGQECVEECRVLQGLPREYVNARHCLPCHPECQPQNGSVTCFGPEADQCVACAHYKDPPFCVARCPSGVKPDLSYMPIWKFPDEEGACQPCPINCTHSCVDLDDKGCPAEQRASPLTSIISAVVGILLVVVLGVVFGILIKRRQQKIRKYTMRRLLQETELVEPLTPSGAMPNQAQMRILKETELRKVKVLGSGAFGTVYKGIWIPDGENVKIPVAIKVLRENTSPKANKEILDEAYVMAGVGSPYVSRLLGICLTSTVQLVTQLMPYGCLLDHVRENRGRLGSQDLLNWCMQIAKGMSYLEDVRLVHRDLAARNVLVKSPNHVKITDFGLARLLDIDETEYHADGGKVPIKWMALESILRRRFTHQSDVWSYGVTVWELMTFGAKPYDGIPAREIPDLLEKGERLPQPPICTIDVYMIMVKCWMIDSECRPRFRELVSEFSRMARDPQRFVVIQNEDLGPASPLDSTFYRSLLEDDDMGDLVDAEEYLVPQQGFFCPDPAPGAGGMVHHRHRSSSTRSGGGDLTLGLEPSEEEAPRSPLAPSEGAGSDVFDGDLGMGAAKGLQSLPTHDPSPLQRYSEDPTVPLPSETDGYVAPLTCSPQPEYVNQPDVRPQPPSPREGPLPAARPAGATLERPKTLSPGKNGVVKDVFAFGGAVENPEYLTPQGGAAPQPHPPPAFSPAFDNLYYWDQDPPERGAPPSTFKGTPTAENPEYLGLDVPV

[4] = DRUGMATRIX: GABAA, Flunitrazepam, Central radioligand binding (ligand: [3H] Flunitrazepam); format: cell membranes, Rattus norvegicus, Wistar, Brain, Membrane; conditions: Not Active = under 50% inhibition at 10 µM
[5] = target: T2, Alpha-2C adrenergic receptor (Homo sapiens, UniProt P18825); experiment: DRUGMATRIX: Adrenergic Alpha-2C radioligand binding (ligand: [3H] MK-912); format: cell membranes, Sf9, Membrane; conditions: sf9
T2 sequence (P18825 whole entry): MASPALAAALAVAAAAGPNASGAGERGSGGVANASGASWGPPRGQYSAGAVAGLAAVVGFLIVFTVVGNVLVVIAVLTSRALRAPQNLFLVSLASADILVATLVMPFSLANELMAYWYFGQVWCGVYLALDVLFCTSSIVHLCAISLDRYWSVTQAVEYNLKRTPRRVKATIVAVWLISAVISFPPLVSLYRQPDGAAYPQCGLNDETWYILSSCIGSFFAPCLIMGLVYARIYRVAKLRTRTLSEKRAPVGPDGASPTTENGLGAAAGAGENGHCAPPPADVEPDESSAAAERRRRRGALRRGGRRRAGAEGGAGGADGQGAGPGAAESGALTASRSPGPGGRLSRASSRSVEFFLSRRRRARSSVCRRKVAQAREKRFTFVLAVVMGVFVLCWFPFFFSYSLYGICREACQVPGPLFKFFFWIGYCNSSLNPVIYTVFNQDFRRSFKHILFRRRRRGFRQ

Insulin receptor = Insulin receptor (Rattus norvegicus, UniProt P15127); format: cell membranes, Wistar, Liver, Membrane; further: in other assays of this panel Not Active means under 50% inhibition at 10 µM
Chain of Insulin receptor (P15127 27-759 limits assumed): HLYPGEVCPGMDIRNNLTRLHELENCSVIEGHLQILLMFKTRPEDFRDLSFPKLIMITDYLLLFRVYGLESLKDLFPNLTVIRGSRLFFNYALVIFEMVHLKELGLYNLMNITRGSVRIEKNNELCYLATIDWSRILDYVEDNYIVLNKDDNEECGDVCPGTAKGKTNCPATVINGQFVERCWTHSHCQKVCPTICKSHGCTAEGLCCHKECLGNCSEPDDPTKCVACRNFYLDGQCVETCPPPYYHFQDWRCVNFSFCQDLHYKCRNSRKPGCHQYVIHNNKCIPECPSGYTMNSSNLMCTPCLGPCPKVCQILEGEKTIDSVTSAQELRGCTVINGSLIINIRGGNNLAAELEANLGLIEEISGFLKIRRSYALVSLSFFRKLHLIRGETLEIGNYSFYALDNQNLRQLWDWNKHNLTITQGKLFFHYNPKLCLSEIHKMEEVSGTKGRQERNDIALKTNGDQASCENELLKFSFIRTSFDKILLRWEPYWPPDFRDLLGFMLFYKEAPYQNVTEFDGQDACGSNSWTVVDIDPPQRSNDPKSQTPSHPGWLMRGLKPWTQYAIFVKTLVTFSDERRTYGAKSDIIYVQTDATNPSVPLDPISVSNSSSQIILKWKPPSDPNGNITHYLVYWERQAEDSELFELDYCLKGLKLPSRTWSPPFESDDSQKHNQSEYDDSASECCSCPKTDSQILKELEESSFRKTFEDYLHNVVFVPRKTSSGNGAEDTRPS
Chain of Insulin receptor (P15127 764-1383 limits assumed): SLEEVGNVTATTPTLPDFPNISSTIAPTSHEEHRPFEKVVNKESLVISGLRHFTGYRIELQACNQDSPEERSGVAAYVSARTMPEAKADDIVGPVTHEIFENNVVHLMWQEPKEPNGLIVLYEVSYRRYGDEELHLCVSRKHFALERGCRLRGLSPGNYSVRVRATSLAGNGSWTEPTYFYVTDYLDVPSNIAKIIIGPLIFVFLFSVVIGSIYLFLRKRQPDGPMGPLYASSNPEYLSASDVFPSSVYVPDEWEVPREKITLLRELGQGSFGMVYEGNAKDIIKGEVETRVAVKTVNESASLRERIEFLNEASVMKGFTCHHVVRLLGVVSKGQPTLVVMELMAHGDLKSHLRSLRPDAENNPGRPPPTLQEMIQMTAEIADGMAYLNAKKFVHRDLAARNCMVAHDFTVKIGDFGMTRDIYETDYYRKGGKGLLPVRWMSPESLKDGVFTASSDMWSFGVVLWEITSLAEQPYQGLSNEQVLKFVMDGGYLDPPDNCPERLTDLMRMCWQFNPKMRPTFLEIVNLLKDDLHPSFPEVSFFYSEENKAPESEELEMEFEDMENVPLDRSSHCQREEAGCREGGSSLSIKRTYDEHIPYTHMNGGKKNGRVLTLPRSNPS

[6] = target: T3, Type-2 angiotensin II receptor (Homo sapiens, UniProt P50052); format: cell-based; conditions: cho-k1; further: in other assays of this panel Not Active means under 50% inhibition at 10 µM
T3 sequence (P50052 whole entry): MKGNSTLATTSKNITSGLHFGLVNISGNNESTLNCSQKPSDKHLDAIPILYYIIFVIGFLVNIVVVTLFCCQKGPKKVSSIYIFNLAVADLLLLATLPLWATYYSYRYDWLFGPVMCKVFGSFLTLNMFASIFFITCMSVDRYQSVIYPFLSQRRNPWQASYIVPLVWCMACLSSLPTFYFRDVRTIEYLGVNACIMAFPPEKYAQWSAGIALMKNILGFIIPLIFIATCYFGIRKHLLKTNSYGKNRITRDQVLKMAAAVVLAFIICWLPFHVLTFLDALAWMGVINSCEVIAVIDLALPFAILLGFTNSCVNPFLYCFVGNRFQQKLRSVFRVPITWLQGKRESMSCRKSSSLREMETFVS

[7] = target: 5-hydroxytryptamine receptor 1B (Rattus norvegicus, UniProt P28564); format: cell membranes, Wistar, Cerebral cortex, Membrane; further: in other assays of this panel Not Active means under 50% inhibition at 10 µM
Chain of 5-hydroxytryptamine receptor 1B (P28564 whole entry): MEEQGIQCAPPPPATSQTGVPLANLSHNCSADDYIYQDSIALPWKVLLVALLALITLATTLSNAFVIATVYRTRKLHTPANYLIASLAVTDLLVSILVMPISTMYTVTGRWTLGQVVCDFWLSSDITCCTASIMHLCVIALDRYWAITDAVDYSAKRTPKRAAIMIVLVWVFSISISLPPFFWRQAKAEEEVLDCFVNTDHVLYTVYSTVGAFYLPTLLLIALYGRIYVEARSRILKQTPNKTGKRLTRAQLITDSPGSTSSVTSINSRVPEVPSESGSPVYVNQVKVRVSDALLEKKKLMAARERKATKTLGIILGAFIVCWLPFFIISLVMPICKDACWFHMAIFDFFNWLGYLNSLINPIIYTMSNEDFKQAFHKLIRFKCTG

[8] = target: Beta-1 adrenergic receptor (Homo sapiens, UniProt P08588); experiment: DRUGMATRIX: Adrenergic beta1 radioligand binding (ligand: [125I] Cyanopindolol); format: cell membranes, CHO-K1, Membrane; conditions: cho-k1; Not Active = under 50% inhibition at 10 µM
Chain of Beta-1 adrenergic receptor (P08588 whole entry): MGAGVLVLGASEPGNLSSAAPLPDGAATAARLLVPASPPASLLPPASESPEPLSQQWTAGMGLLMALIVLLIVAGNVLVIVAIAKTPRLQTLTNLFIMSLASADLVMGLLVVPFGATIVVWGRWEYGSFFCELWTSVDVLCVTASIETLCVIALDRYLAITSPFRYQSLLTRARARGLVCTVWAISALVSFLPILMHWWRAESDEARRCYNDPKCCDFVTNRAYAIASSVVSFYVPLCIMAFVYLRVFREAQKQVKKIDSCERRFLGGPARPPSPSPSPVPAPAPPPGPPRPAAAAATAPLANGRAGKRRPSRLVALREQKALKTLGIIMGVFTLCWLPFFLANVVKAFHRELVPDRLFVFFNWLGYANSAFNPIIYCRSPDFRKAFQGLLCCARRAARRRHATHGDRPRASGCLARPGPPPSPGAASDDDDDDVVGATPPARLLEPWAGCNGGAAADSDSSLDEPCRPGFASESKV

[9] = target: Voltage-gated inwardly rectifying potassium channel KCNH2 (Homo sapiens, UniProt Q12809); conditions: hek293; further: in other assays of this panel Not Active means under 50% inhibition at 10 µM
Chain of Voltage-gated inwardly rectifying potassium channel KCNH2 (Q12809 whole entry): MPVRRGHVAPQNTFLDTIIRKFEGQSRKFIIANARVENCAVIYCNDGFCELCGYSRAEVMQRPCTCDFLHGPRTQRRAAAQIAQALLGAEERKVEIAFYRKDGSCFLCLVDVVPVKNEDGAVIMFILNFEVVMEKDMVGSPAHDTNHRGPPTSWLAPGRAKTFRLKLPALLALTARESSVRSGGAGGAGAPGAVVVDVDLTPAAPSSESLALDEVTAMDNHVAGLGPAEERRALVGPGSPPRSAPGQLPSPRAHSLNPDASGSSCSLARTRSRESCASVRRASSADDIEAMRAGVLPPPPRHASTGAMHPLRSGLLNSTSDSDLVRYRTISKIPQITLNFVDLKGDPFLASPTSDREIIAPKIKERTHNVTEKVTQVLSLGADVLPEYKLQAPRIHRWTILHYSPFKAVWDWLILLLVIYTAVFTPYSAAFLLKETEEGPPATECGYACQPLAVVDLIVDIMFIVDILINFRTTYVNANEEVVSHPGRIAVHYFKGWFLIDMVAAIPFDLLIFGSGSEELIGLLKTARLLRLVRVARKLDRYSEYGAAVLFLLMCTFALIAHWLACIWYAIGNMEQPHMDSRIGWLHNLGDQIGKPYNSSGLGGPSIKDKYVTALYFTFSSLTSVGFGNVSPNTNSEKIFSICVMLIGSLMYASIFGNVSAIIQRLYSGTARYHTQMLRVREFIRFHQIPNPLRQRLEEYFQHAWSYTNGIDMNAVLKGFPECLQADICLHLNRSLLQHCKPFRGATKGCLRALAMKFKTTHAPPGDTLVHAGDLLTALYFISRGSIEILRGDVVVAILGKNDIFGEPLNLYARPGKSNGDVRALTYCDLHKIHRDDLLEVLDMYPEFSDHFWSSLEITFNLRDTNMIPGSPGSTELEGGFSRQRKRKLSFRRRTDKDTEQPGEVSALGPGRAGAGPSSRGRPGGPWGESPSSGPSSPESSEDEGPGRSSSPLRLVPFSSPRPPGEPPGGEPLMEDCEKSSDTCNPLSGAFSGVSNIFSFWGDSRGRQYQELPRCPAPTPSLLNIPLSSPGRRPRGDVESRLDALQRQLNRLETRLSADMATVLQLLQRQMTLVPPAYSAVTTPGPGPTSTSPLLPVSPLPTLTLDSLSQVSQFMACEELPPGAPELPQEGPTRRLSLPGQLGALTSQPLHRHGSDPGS

[10] = target: T4, Neuropeptide Y receptor type 2 (Homo sapiens, UniProt P49146); format: cell membranes, Membrane; conditions: kan-ts; further: in other assays of this panel Not Active means under 50% inhibition at 10 µM
T4 sequence (P49146 whole entry): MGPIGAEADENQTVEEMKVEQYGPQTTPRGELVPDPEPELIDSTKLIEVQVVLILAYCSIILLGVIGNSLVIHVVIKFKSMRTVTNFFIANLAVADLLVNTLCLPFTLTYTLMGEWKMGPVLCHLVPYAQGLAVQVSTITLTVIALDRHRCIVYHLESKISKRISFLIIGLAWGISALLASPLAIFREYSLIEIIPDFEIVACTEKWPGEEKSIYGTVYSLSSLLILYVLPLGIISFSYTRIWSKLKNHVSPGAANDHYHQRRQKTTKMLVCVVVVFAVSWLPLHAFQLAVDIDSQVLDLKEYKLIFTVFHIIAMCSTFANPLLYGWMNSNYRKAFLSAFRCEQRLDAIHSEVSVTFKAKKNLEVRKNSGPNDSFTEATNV

Adenosine receptor A1 = target: T5, Adenosine receptor A1 (Homo sapiens, UniProt P30542); format: cell membranes, CHO, Membrane; conditions: cho
T5 sequence (P30542 whole entry): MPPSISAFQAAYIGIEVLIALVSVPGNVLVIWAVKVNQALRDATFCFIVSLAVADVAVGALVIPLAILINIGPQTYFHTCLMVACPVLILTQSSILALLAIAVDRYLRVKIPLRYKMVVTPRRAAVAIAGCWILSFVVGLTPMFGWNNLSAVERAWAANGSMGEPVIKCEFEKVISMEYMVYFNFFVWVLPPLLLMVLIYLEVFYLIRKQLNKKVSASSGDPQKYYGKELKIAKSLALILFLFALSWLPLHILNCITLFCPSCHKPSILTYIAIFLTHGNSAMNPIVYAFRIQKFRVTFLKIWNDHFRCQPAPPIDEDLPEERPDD

NCC1(CC(=O)O)CCCCC1 [GABAPENTIN]
Not Active: IC50 [1] | IC50 [2] | Ki [2] | IC50 [3] | IC50 [4] | Ki [4] | IC50 [5] | IC50 (Insulin receptor) | IC50 [6] | IC50 [7] | IC50 [8] | IC50 [9] | Ki [9] | IC50 [10] | IC50 (Adenosine receptor A1)

CC[N+](CC)(CC)CCOc1cccc(OCC[N+](CC)(CC)CC)c1OCC[N+](CC)(CC)CC.[I-].[I-].[I-] [GALLAMINE TRIETHIODIDE]
Not Active: IC50 [1] | IC50 [2] | Ki [2] | IC50 [3] | IC50 [4] | Ki [4] | IC50 [5] | IC50 (Insulin receptor) | IC50 [6] | IC50 [7] | IC50 [8] | IC50 [9] | Ki [9] | IC50 [10] | IC50 (Adenosine receptor A1)

Nc1nc2c(ncn2COC(CO)CO)c(=O)[nH]1 [GANCICLOVIR]
Not Active: IC50 [1] | IC50 [2] | Ki [2] | IC50 [3] | IC50 [4] | Ki [4] | IC50 [5] | IC50 (Insulin receptor) | IC50 [6] | IC50 [7] | IC50 [8] | IC50 [9] | Ki [9] | IC50 [10] | IC50 (Adenosine receptor A1)

COc1c(N2CCNC(C)C2)c(F)cc2c(=O)c(C(=O)O)cn(C3CC3)c12 (stereo not given) [GATIFLOXACIN]
Not Active: IC50 [1] | IC50 [2] | Ki [2] | IC50 [3] | IC50 [4] | Ki [4] | IC50 [5] | IC50 (Insulin receptor) | IC50 [6] | IC50 [7] | IC50 [8] | IC50 [9] | Ki [9] | IC50 [10] | IC50 (Adenosine receptor A1)

NCC(=O)O [GLYCINE]
Not Active: IC50 [1] | IC50 [2] | Ki [2] | IC50 [3] | IC50 [4] | Ki [4] | IC50 [5] | IC50 (Insulin receptor) | IC50 [6] | IC50 [7] | IC50 [8] | IC50 [9] | Ki [9] | IC50 [10] | IC50 (Adenosine receptor A1)

CC1(C)[C@@H](O[C@H]2O[C@H](C(=O)O)[C@@H](O)[C@H](O)[C@H]2O[C@@H]2O[C@H](C(=O)O)[C@@H](O)[C@H](O)[C@H]2O)CC[C@]2(C)[C@H]3C(=O)C=C4[C@@H]5C[C@@](C)(C(=O)O)CC[C@]5(C)CC[C@@]4(C)[C@]3(C)CC[C@@H]12 [GLYCYRRHIZIN]
Not Active: IC50 [1] | IC50 [2] | Ki [2] | IC50 [3] | IC50 [4] | Ki [4] | IC50 [5] | IC50 (Insulin receptor) | IC50 [6] | IC50 [7] | IC50 [8] | IC50 [9] | Ki [9] | IC50 [10] | IC50 (Adenosine receptor A1)

COC1=CC(=O)C[C@@H](C)[C@]12Oc1c(Cl)c(OC)cc(OC)c1C2=O [GRISEOFULVIN]
Not Active: IC50 [1] | IC50 [2] | Ki [2] | IC50 [3] | IC50 [4] | Ki [4] | IC50 [5] | IC50 (Insulin receptor) | IC50 [6] | IC50 [7] | IC50 [8] | IC50 [9] | Ki [9] | IC50 [10] | IC50 (Adenosine receptor A1)

Source: ChEMBL document CHEMBL1909046, “DrugMatrix in vitro pharmacology data”
